Data published in patent publication US5410024A, “Human cancer inhibitory pentapeptide amides” (Arizona Board of Regents acting on behalf of Arizona State …, priority 1993, dated 1995).

Assays:
Type in all cases: cell-based
human tumor cell lines = assay: Inhibition of human tumor cell lines (general statements); conditions: for GI50: for at least six cell lines
Source text: Current research in the control of cancer in the United States is coordinated by the National Cancer Institute (NCI). To determine whether a substance has anti-cancer properties, the NCI has established a systematic protocol. This protocol, which involves the testing of a substance against a standard cell line panel containing 60 human tumor cell lines, has been verified and is accepted in scientific circles. The protocol, and the established statistical means for analyzing the results obtained by the standardized testing are fully described in the literature. See: Boyd, Dr. Michael R., Principles & Practice of Oncology, PPO Updates, Volume 3, Number 10, October 1989, for an in depth description of the testing protocol; and Paull, K. D., "Display and Analysis of Patterns of Differential Activity of Drugs Against Human Tumor Cell Lines; Development of Mean Graph and COMPARE Algorithm", Journal of the National Cancer Institute Reports, Vol. 81, No. 14, Page 1088, Jul. 14, 1989 for a description of the methods of statistical analysis. Both of these references are incorporated herein by this reference thereto.

OVCAR-3 = assay: NCI human tumor cell line screen, Ovarian OVCAR-3; conditions: for GI-50 / LC-50 / TGI: Ovarian OVCAR-3
Source text: (§1) Current research in the control of cancer in the United States is coordinated by the National Cancer Institute (NCI). To determine whether a substance has anti-cancer properties, the NCI has established a systematic protocol. […] The protocol, and the established statistical means for analyzing the results obtained by the standardized testing are fully described in the literature. […] Both of these references are incorporated herein by this reference thereto.

KM20L2 = assay: NCI human tumor cell line screen, Colon KM20L2; conditions: for GI-50 / LC-50 / TGI: Colon KM20L2; for GI50, minipanel cell line E: minipanel comparison
Source text: as §1

SF-295 = assay: NCI human tumor cell line screen, CNS SF-295; conditions: for GI-50 / LC-50 / TGI: CNS SF-295
Source text: as §1

SK-MEL-5 = assay: NCI human tumor cell line screen, Melanoma SK-MEL-5; conditions: for GI-50 / LC-50 / TGI: Melanoma SK-MEL-5
Source text: as §1

A498 = assay: NCI human tumor cell line screen, Renal A498; conditions: for GI-50 / LC-50 / TGI: Renal A498
Source text: as §1

NCI-H460 = assay: NCI human tumor cell line screen, Lung-NSC NCI-H460; conditions: for GI-50 / LC-50 / TGI: Lung-NSC NCI-H460
Source text: as §1

Substance | GI-50 (OVCAR-3) | LC-50 (OVCAR-3) | TGI (OVCAR-3) | GI-50 (KM20L2) | LC-50 (KM20L2) | TGI (KM20L2) | GI-50 (SF-295) | LC-50 (SF-295) | TGI (SF-295) | GI-50 (SK-MEL-5) | LC-50 (SK-MEL-5) | TGI (SK-MEL-5) | GI-50 (A498) | LC-50 (A498) | TGI (A498) | GI-50 (NCI-H460) | LC-50 (NCI-H460) | TGI (NCI-H460) | further results
(R)-Doe-isoDolastatin 10 [reference compound] | – | – | – | – | – | – | – | – | – | – | – | – | – | – | – | – | – | – | human cancer cell line activity as compared to Dolastatin 10 (human tumor cell lines): did not show any significant difference
L-Dolavalyl-L-Valyl-N-Methyl-(S,S,R)-Dolaisoleucyl-(S,R,R)-Dolaproyl-L-Phenylalanineamide-N-(1-adamantane) [Compound 9j] | 0.000019 µg/mL | > 0.0001 µg/mL | 0.055 ng/mL | 0.000027 µg/mL | > 0.0001 µg/mL | 0.072 ng/mL | 0.000030 µg/mL | > 0.0001 µg/mL | > 0.1 ng/mL | 0.000022 µg/mL | > 0.0001 µg/mL | > 0.1 ng/mL | 0.000034 µg/mL | > 0.0001 µg/mL | > 0.1 ng/mL | 0.000014 µg/mL | > 0.0001 µg/mL | 0.057 ng/mL | –
L-Dolavalyl-L-Valyl-N-Methyl-(S,S,R)-Dolaisoleucyl-(S,R,R)-Dolaproyl-L-Phenylalanineamide-N-(2-benzothiazole) [Compound 9e] | 0.000000033 µg/mL | – | 0.00019 ng/mL | – | – | 0.0007 ng/mL | 0.00000011 µg/mL | – | 0.00096 ng/mL | 0.000000030 µg/mL | – | > 0.001 ng/mL | – | – | > 0.001 ng/mL | 0.000000039 µg/mL | – | 0.00044 ng/mL | GI50, minipanel cell line E (KM20L2): 0.00026 ng/mL; GI50 (human tumor cell lines): less than 10^-7 μg/ml; GI50, minipanel cell line C (A498; minipanel comparison, column C (key not visible; values match A498)): 0.00023 ng/mL
L-Dolavalyl-L-Valyl-N-Methyl-(S,S,R)-Dolaisoleucyl-(S,R,R)-Dolaproyl-L-Phenylalanineamide-N-(2-thiazole) [Compound 9a] | 0.0000005 µg/mL | 0.000088 µg/mL | 0.0044 ng/mL | 0.0000020 µg/mL | – | 0.011 ng/mL | 0.0000038 µg/mL | – | > 0.1 ng/mL | 0.0000014 µg/mL | – | 0.08 ng/mL | 0.0000056 µg/mL | – | 0.09 ng/mL | 0.0000018 µg/mL | – | 0.009 ng/mL | –
L-Dolavalyl-L-Valyl-N-Methyl-(S,S,R)-Dolaisoleucyl-(S,R,R)-Dolaproyl-L-Phenylalanineamide-N-(3-quinoline) [Compound 9g] | – | > 0.000001 µg/mL | 7.9e-05 ng/mL | – | > 0.000001 µg/mL | 0.00023 ng/mL | – | > 0.000001 µg/mL | 0.00061 ng/mL | – | > 0.000001 µg/mL | > 0.001 ng/mL | 0.000000100 µg/mL | > 0.000001 µg/mL | > 0.001 ng/mL | – | > 0.000001 µg/mL | 0.00012 ng/mL | GI50, minipanel cell line A (OVCAR-3; minipanel comparison, column A (key not visible; values match OVCAR-3)): 4.6e-07 ng/mL; GI50, minipanel cell line E (KM20L2): 3.9e-05 ng/mL; GI50, minipanel cell line B (SF-295; minipanel comparison, column B (key not visible; values match SF-295)): 4e-05 ng/mL; GI50, minipanel cell line F (SK-MEL-5; minipanel comparison, column F (key not visible; values match SK-MEL-5)): 3e-06 ng/mL; GI50 (human tumor cell lines): less than 10^-7 μg/ml; GI50, minipanel cell line D (NCI-H460; minipanel comparison, column D (key not visible; values match NCI-H460)): 1.3e-05 ng/mL
L-Dolavalyl-L-Valyl-N-Methyl-(S,S,R)-Dolaisoleucyl-(S,R,R)-Dolaproyl-L-Phenylalanineamide-N-(methenyl-2-pyridine) [Compound 9i] | 0.000056 µg/mL | > 0.01 µg/mL | 2 ng/mL | 0.00033 µg/mL | > 0.01 µg/mL | > 10 ng/mL | 0.00036 µg/mL | > 0.01 µg/mL | > 10 ng/mL | 0.000029 µg/mL | > 0.01 µg/mL | > 10 ng/mL | 0.00059 µg/mL | > 0.01 µg/mL | > 10 ng/mL | 0.000051 µg/mL | > 0.01 µg/mL | 1 ng/mL | –
L-Dolavalyl-L-Valyl-N-Methyl-(S,S,R)-Dolaisoleucyl-(S,R,R)-Dolaproyl-L-Phenylalanineamide-N-(methenyl-2-thiophene) [Compound 9h] | < 0.000001 µg/mL | 0.0097 µg/mL | 0.28 ng/mL | 0.000049 µg/mL | > 0.01 µg/mL | 1.3 ng/mL | 0.00014 µg/mL | > 0.01 µg/mL | > 10 ng/mL | < 0.000001 µg/mL | > 0.01 µg/mL | > 10 ng/mL | 0.000055 µg/mL | > 0.01 µg/mL | 6.9 ng/mL | 0.0000089 µg/mL | > 0.01 µg/mL | 0.37 ng/mL | –
L-Dolavalyl-L-Valyl-N-Methyl-(S,S,R)-Dolaisoleucyl-(S,R,R)-Dolaproyl-L-Phenylalanineamide-N-[2-(1,3,4-thiadiazole)] [Compound 9d] | 0.0000031 µg/mL | > 0.0001 µg/mL | 0.16 ng/mL | 0.0000099 µg/mL | 0.00069 µg/mL | 0.015 ng/mL | 0.000024 µg/mL | > 0.0001 µg/mL | > 0.1 ng/mL | 0.0000082 µg/mL | 0.00043 µg/mL | 0.007 ng/mL | 0.000039 µg/mL | > 0.0001 µg/mL | > 0.1 ng/mL | 0.0000036 µg/mL | > 0.0001 µg/mL | 0.061 ng/mL | –
L-Dolavalyl-L-Valyl-N-Methyl-(S,S,R)-Dolaisoleucyl-(S,R,R)-Dolaproyl-L-Phenylalanineamide-N-[2-(4-methylthiazole)] [Compound 9b] | 0.00000020 µg/mL | – | 0.012 ng/mL | 0.0000034 µg/mL | > 0.0001 µg/mL | 0.017 ng/mL | 0.0000026 µg/mL | > 0.0001 µg/mL | > 0.1 ng/mL | 0.00000081 µg/mL | > 0.0001 µg/mL | > 0.1 ng/mL | 0.0000053 µg/mL | > 0.0001 µg/mL | > 0.1 ng/mL | 0.00000046 µg/mL | > 0.0001 µg/mL | 0.013 ng/mL | –
L-Dolavalyl-L-Valyl-N-Methyl-(S,S,R)-Dolaisoleucyl-(S,R,R)-Dolaproyl-L-Phenylalanineamide-N-[2-(4-phenylthiazole)] [Compound 9c] | 0.000020 µg/mL | > 0.001 µg/mL | 0.13 ng/mL | 0.0002 µg/mL | > 0.001 µg/mL | 0.75 ng/mL | 0.000065 µg/mL | > 0.001 µg/mL | > 1 ng/mL | 0.000043 µg/mL | > 0.001 µg/mL | 0.33 ng/mL | 0.000057 µg/mL | > 0.001 µg/mL | 0.72 ng/mL | 0.000056 µg/mL | > 0.001 µg/mL | 0.51 ng/mL | –
L-Dolavalyl-L-Valyl-N-Methyl-(S,S,R)-Dolaisoleucyl-(S,R,R)-Dolaproyl-L-Phenylalanineamide-N-[2-(6-methoxybenzo-thiazole)] [Compound 9f] | 0.00032 µg/mL | > 0.01 µg/mL | 1.1 ng/mL | 0.00036 µg/mL | > 0.01 µg/mL | 2.2 ng/mL | 0.00055 µg/mL | > 0.01 µg/mL | > 10 ng/mL | 0.000090 µg/mL | > 0.01 µg/mL | > 10 ng/mL | 0.00037 µg/mL | > 0.01 µg/mL | > 10 ng/mL | 0.00033 µg/mL | > 0.01 µg/mL | 1.6 ng/mL | –
